pIC50: −log10 of the molar value.
Target: T1, mouse alkaline ceramidase 1 (maCER1) (Mus musculus, UniProt Q8R4X1)
T1 construct: The ORF of the mouse alkaline ceramidase was amplified from the mouse liver cDNA library; made in house; host or cells: Saccharomyces cerevisiae mutant strain Δypc1Δydc1 (microsomes, galactose-induced, pYES2-FLAG-maCER1)
T1 sequence (Q8R4X1 1-273): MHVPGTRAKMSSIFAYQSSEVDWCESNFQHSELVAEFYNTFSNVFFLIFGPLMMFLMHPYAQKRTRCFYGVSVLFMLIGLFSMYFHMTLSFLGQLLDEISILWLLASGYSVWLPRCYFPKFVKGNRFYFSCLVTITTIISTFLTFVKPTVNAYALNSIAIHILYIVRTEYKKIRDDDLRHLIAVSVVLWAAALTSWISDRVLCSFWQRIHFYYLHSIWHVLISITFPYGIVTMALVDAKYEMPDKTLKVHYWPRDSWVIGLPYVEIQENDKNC
Assay: Ceramidase activity assay with maCER1-containing yeast microsomes (release of NBD-fatty acid from D-e-C12-NBD-ceramide)
Format: biochemical
Settings: FIG. 4C; for effect of sphingoid base on ceramidase activity (in words): same concentration range as sphingosine
Protocol: The microsomes, as in FIGS. 2A-D were assayed for ceramidase activity using D-e-C12-NBD-ceramide (200 μM) as substrate at different pH in the presence of 0.2% NP-40 and 5 mM Ca^2+ (FIG. 4A), at pH 8.5 in the presence of different cations (FIG. 4B), or different sphingoid bases (FIG. 4C). Results are the mean±SD of three independent experiments performed in duplicate.
maCER1 was expressed in yeast cells as described (Reference 21). Briefly, the expression construct pYES2-FLAG-maCER1 or the empty vector pYES2-FLAG was transformed into the yeast strain Δypc1Δydc1. Expression of the FLAG-tagged maCER1 was induced by 2% galactose.
Ceramidase activity was determined by the release of NBD-fatty acid from fluorescent substrates, NBD-C12-ceramide, dihydroceramide, or phytoceramide as described (Reference 21). Briefly, 20 μl of microsomes (containing 10-20 μg proteins) in buffer B (25 mM Tris-HCl, pH 8.0, 5 mM CaCl2) was mixed with 20 μl of 200 μM NBD-ceramide in buffer B with 0.4% NP-40 in a 1.5 ml microfuge tube. After incubation at 37° C. for 30-60 min, the reactions were stopped by boiling for 5 min, and dried under a SpeedVec. The released NBD-fatty acid was separated from NBD-ceramide by TLC in a solvent of chloroform:methanol: ammonium hydroxide (90:30:0.5) and quantified by PhosphorImager set at the fluorescent mode. To determine the pH optimum of maCER1, the maCER1 microsomes were resuspended in buffer C (1 mM Tris-HCl, pH 7.4, containing 5 mM CaCl2). To determine a cation effect, the maCER1 microsomes were resuspended in buffer A without CaCl2.

| pIC50 (maCER1 microsomes, substrate D-e-C12-NBD-ceramide (200 μM), read-out: IC50 for the inhibition of ceramidase activity) | SMILES | effect of sphingoid base on ceramidase activity (in words) |
| --- | --- | --- |
| – | CCCCCCCCCCCCCCC[C@@H](O)[C@@H](N)CO [dihydrosphingosine, D-erythro-dihydrosphingosine] | neither phytosphingosine nor dihydrosphingosine in the same concentration range were inhibitory |
| – | CCCCCCCCCCCCCC[C@@H](O)[C@@H](O)[C@@H](N)CO [phytosphingosine, D-ribo-phytosphingosine] | neither phytosphingosine nor dihydrosphingosine in the same concentration range were inhibitory |
| ~4.10 | CCCCCCCCCCCCC/C=C/[C@@H](O)[C@@H](N)CO [sphingosine, D-erythro-sphingosine] | – |

From patent US20060099681A1, “Human and mouse alkaline ceramidase 1 and skin diseases” (U.S. DEPARTMENT OF VETERANS AFFAIRS, priority 2004, published 2006)
